Test results published in patent publication US11497793B2, “Compositions and methods for treating glioblastoma” (TEL HASHOMER MEDICAL RESEARCH INFRASTRUCTURE AND SERVICES …, priority 2018, dated 2022).
The star is where a group is joined. Tos = Cc1ccc(S(=O)(=O)*)cc1; CH2Cl = ClC*

How the values were obtained:
[1] = system: CNS-1 glioma cell line; experiment: Glioma cell proliferation measured by XTT; format: cell-based, rat; conditions: CNS-1 cells, 72 hours, TMZ 500 μM, SIXAC 10 μM, alone or combined
Protocol: The following experiment tested the effect of the chemotherapeutic drug temozolomide (“TMZ”) in combination with the peptide conjugate Tosyl-ATLDPR-chloromethylketone (tosyl-SEQ ID NO: 3-CMK) on the proliferation of glioma cells. The peptide conjugate contains 6 amino acids from the N-terminus of PAR-1: ATLDPR (SEQ ID NO: 3), and is denoted herein as “SIXAC”.
In particular, CNS-1 glioma cell line (rat) was treated with either TMZ (500 μM), SIXAC (10 μM) or a combination of TMZ (500 μM) and SIXAC (10 μM) for 72 hours. Proliferation was measured by means of XTT in comparison to non-treated cells (control).

[2] = system: CNS-1 brain tumor; experiment: Survival in an animal model of GBM (CNS-1 cells injected into parietal cortex, intratumoral osmotic pump); format: in vivo; conditions: rat GBM model; osmotic pump into tumor for 14 days; TMZ 2 mg/rat, SIXAC 6.9 μg/rat (20 μg/kg/day); monitored until Day 25
Protocol: CNS-1 cells ([…]) were injected using stereotactic methods into the parietal cortex of rats (n=20, 16 rats survived the surgery).
Five days later (Day 5) the brains of the rats that survived the surgery were examined by MRI and the tumors scored on a scale of 1-3. For each rat, a catheter was placed in the brain tumor and attached to an osmotic pump (Alzet®) releasing one of the following treatments ([…], for 14 days): TMZ 2 mg/rat (n=7), or TMZ 2 mg/rat and SIXAC 6.9 μg/rat (20 μg/kg/day) (n=7) (TMZ was dissolved in saline and 0.1M acetate buffer pH5) (50:50 v/v ratio).
The groups were monitored daily for survival until Day 25.

[3] = system: C6 rat glioma cells; experiment: Scratch (wound healing) assay of glioma cell migration; format: cell-based; conditions: 4 h of incubation, SIXAC 1 μM, TMZ 100 μM, alone or combined
Protocol: C6 rat glioma cells were grown in Dulbecco's modified Eagle's medium (DMEM; Bet Haemek, Biological Industries, Israel) supplemented with 10% fetal bovine serum (Bet Haemek, Biological Industries, Israel) and 1% penicillin and streptomycin in a 5% CO2-humidified atmosphere.
The effect of TMZ and SIXAC on the coordinated movement of C6 glioma cells was evaluated using a wound healing assay. The cells were seeded in 24-well plates at a density of 5×10^4 cells/well. Cells were cultured in FCS-free medium for 24 h. A wound was established by scraping using 10 μl pipette tip. Cells were washed twice with warm PBS and then fresh FCS-free medium was added, containing SIXAC (1 μM), TMZ (100 μM) or a combination of SIXAC and TMZ. Wells with FCS-free medium only or FCS-free medium+DMSO 0.2% were used as controls (marked as “control” and “control+DMSO”) Image acquisition of wound gap closure (%) was carried out following 4 h of incubation using a Nikon Eclipse microscope Images were analyzed using Fiji software.

[4] = system: phosphorylated extracellular signal-regulated kinase (pERK); experiment: Western blot of pERK level in glioma cells; format: cell-based, rat; conditions: CNS-1 cells, 24 h; TMZ 500 μM, SIXAC 10 μM, alone or combined; vs FCS-free medium with 0.2% DMSO
Protocol: (§1) More particularly, the expression of two proteins, PAR-1 and phosphorylated extracellular signal-regulated kinase (pERK), was examined in glioma cells incubated with TMZ, SIXAC or a combination of TMZ+SIXAC.
(§2) CNS-1 rat glioma cells were grown in Dulbecco's modified Eagle's medium (DMEM; Bet Haemek, Biological Industries, Israel) supplemented with 10% fetal bovine serum (Bet Haemek, Biological Industries, Israel) and 1% penicillin and streptomycin in a 5% CO2-humidified atmosphere.
(§3) CNS-1 cells were seeded and incubated for 24 h. Then the medium was replaced by FCS-free medium for additional 24 h. Next, the cells were treated for 24 h with SIXAC (10 μM), TMZ (500 μM), a combination of TMZ (500 μM) and SIXAC (10 μM) or a FCS-free medium (containing 0.2% DMSO) which was used as a control (n=4 for each treatment group). The cells were then washed with ice-cold PBS and lysed in RIPA buffer (containing in mM: 50 TRIS HCl pH 8, 150 NaCl, 1% NP-40, 0.5% sodium deoxycholate, and 0.1% SDS), a protease inhibitor cocktail (Merck Millipore 539134, 1:100), 0.1 mM sodium orthovanadate and 2 mM PMSF. The cells were scraped, collected and centrifuged (16,000 g×20 min) at 4° C. The supernatants were collected, and protein concentration was determined by means of a bicinchoninic acid (BCA) assay.

[5] = system: PAR-1; experiment: Western blot of PAR-1 level in glioma cells; format: cell-based, rat; conditions: CNS-1 cells, 24 h; TMZ 500 μM, SIXAC 10 μM, alone or combined; vs FCS-free medium with 0.2% DMSO
Protocol: as §1, §2, §3

`Cn1nnc2c(C(N)=O)ncn2c1=O` [TMZ, temozolomide, reference compound] was tested, and the “cell proliferation compared to non-treated cells (control)” value [1] was “no significant effect” and the Median survival [2] was 14 days.
In the case of “tosyl-Ala-Thr-Leu-Asp-Pro-Arg-chloromethylketone (Tos-ATLDPR-CH2Cl; SMILES Cc1ccc(S(=O)(=O)N[C@@H](C)C(=O)N[C@H](C(=O)N[C@@H](CC(C)C)C(=O)N[C@@H](CC(=O)O)C(=O)N2CCC[C@H]2C(=O)N[C@@H](CCCNC(=N)N)C(=O)CCl)[C@@H](C)O)cc1) [SIXAC, peptide conjugate containing 6 amino acids from the N-terminus of PAR-1 with tosyl and chloromethylketone moieties]”, the wound-closure percentage [3] is reported as “significantly decrease”, the pERK expression [4] is reported as “did not cause any significant change” and the “cell proliferation compared to non-treated cells (control)” value [1] is reported as “minor effect”. For the same compound, the PAR1 expression [5] was “did not cause any significant change”.
